Assay results: US20060079573A1, “Methods and compositions for preventing vasospasm” (priority 2004, published 2006)

Tests used:
canine brachial arteries [1] = experiment: Contractile function of artery segments in organ chambers after WT soak; format: cell-based; conditions: for force of contraction in response to 5HT: 1 μM 5-HT; for force of contraction in response to NE: 1 μM NE; for force of contraction in response to U46: 3 μM U46619; for force of contraction in response to KCl: 60 mM KCl
Description: Canine brachial arteries, equivalents of radial arteries in humans, were used in this study since they were more readily available and we could obtain longer segments than human radial arteries. Based on previous publications, it has been determined that the contractile and relaxation properties of these canine vessels are similar to the properties of human radial arteries in organ chamber studies [Corvera et al. (2003) Pretreatment with phenoxybenzamine attenuates the radial artery's vasoconstrictor response to α-adrenergic stimuli, J. Thorac. Cardiovasc. Surg., 126:1549-54; Velez et al., 2001]. The arteries were harvested as a pedicle graft and stored in 4° C. KH buffer (in mM/1: glucose 11; magnesium sulfate, 1.2; potassium phosphate 1.2; KCl, 4.7; sodium chloride 118; calcium chloride, 2.5) at pH 7.4 until ready for use.
The vessels were carefully skeletonized, cut into 4-5 mm segments, and soaked in a 1 mM solution of WT in KH buffer and 10% DMSO (used to increase solubility of WT), pH 7.4 at 37° C. for 60 min. Control vessels were soaked in KH buffer with 10% DMSO only. The vessels were then rinsed well with KH to remove all unbound drug. For testing of contractile responses, the arterial segments were mounted on steel hooks in glass organ chambers (Radnoti Glass, Monrovia, Calif.) in KH buffer at pH 7.4 and 37° C., and continuously bubbled with a gas mixture of 95% O2 and 5% CO2. One steel hook was held stationary while the other was attached to a force transducer. Force generated by the vessels in response to various agonists was recorded using an analog-to-digital converter and SPECTRUM Cardiovascular Acquisition and Analysis software (Wake Forest University, Winston-Salem, N.C.). The vessel segments were allowed to stabilize at a baseline tension of 3 g for 60 min prior to testing the effect of various vasoconstrictor agents. During this time, the buffer was changed every 20 min. The total time from the end of WT treatment until contractile responses were tested was approximately 2 h. The contractile responses to 1 μM NE (α1 receptor-dependent, calcium-dependent), 1 μM 5-HT (serotonin receptor-dependent, calcium-independent), 3 μM U46 (thromboxane A2 receptor-dependent, calcium-independent), and 60 mM KCl (receptor-independent depolarizing agent) were then quantified. […] The order in which the constricting agents were administered was varied randomly in order to avoid the effects of one drug on another. […] The vessels were thoroughly washed and allowed to stabilize for 20 min between vasoconstrictor agents. The resting tension was adjusted to 3 g during each stabilization period.
To test the duration of MLCK inhibition by the 60 min pre-treatment with 1 mM WT, a subset of vessels were harvested and treated with WT as above, then incubated in drug-free sterile culture medium [Dulbecco's modified eagle medium (Sigma, St Louis Mo.), with 10% newborn calf serum (Gibco, Inc.) and 1% penicillin-streptomycin] under sterile conditions for 48 h in an incubator aerated with 95% O2 and 5% CO2. The culture medium was changed every 12 h during this time. At the end of the 48 h period, the vessels were removed, rinsed with KH buffer, and contractile responses were tested as described above.

canine brachial arteries [2] = experiment: TUNEL assay of endothelial and smooth muscle cell apoptosis in vessels; format: cell-based
Procedure: Endothelial and smooth muscle cell apoptosis was evaluated using the terminal deoxynucleotidyl transferase (TdT)-mediated dUTP nick end labeling (TUNEL) method. In preparation for the TUNEL assay, the vessels were embedded in optimal cutting temperature compound (OCT, Sakura Finetek, Torrance, Calif.). Cryosections from frozen tissue were obtained using a Hacker-Bright cryostat and thaw-mounted onto Fisher-Plus slides (Fisher Scientific). Determination of apoptosis was performed using an in situ cell death detection kit (Roche Applied Science, Indianapolis, Ind.). DNA strand breaks were labeled with fluorescein-dUTP, followed by the addition of a secondary, antifluorescein antibody conjugated with alkaline phosphatase, a converter which generates a red color from Vector Red substrate. Folio wing counterstaining with hematoxylin and dehydration in graded alcohols, the number of apoptotic cells (indicated by red-stained nuclei) per high power field (HPF) was counted under light microscopy and is expressed as a percentage of the total number of nuclei per HPF.

canine brachial arteries [3] = experiment: Histologic evaluation (H and E) of vessels for morphologic injury; format: cell-based; conditions: 48 h after 1 mM WT treatment and incubation
Procedure: Prolonged storage in cell culture environments has the potential to cause cellular injury, which might impair smooth muscle function. To confirm that the lack of the observed contraction in WT-treated vessels was not a function of cellular damage, a subset of vessels was tested for histological signs of injury and apoptosis after treatment with WT and incubation for 48 h. For histology, formalin-fixed vessels were embedded in paraffin blocks, cut into sections for slide preparation, and stained with hematoxylin and eosin (H and E) prior to examination for signs of morphologic damage.

canine brachial arteries [4] = experiment: Endothelial-independent smooth muscle relaxation to SNP after U46 pre-constriction; format: cell-based; conditions: 48 h after 1 mM WT; lower SNP concentrations (≦0.5 μM); pre-constricted with 3 μM U46; controls 87.49±2.91%
Procedure: Cardiovasc. Surg., 126:179-85; van Son et al. (1992) Detrimental sequelae on the wall of the internal mammary artery caused by hydrostatic dilation with diluted papaverine solution, J. Thorac. Cardiovasc. Surg., 104:972-6]. Therefore, to test the vasorelaxation capacity of the vessels after treatment with WT, the vessels were pre-constricted with 3 μM U46, and then exposed to incrementally increasing concentrations (50 nM to […]) of SNP, a direct smooth muscle dilator.
The capacity of the vascular smooth muscle to relax independently of the endothelium was evaluated by pre-constricting vessels with U46, followed by exposure to incrementally increasing concentrations of SNP, a direct smooth muscle relaxing agent. […] Two hours after soaking, control vessels relaxed 99.04±7.30% from their pre-constricted state in response to SNP.

radial artery = conditions: cited from earlier work
[5] = tested on: radial and internal mammary arteries; conditions: cited from earlier work

Compound: COC[C@H]1OC(=O)c2coc3c2[C@@]1(C)C1=C(C3=O)[C@@H]2CCC(=O)[C@@]2(C)C[C@H]1OC(C)=O [WT, Wortmannin]
- force of contraction in response to 5HT (canine brachial arteries [1]; 2 h after 60 min soak in 1 mM WT, control 9.64±0.67 g): 0.92 ± 0.35 g
- force of contraction in response to 5HT (canine brachial arteries [1]; 48 h incubation after 1 mM WT soak, control 12.42±0.70 g): 4.67 ± 0.39 g
- force of contraction in response to NE (canine brachial arteries [1]; 2 h after 60 min soak in 1 mM WT, control 7.22±0.37 g): 0.19 ± 0.07 g
- force of contraction in response to NE (canine brachial arteries [1]; 48 h incubation after 1 mM WT soak, control 6.95±0.47 g): 2.36 ± 0.17 g
- force of contraction in response to U46 (canine brachial arteries [1]; 2 h after 60 min soak in 1 mM WT, control 10.99±0.50 g): 1.25 ± 0.17 g
- force of contraction in response to U46 (canine brachial arteries [1]; 48 h incubation after 1 mM WT soak, control 9.29±0.74 g): 5.42 ± 0.34 g
- force of contraction in response to KCl (canine brachial arteries [1]; 2 h after 60 min soak in 1 mM WT, control 15.00±0.48 g): 1.98 ± 0.27 g
- force of contraction in response to KCl (canine brachial arteries [1]; 48 h incubation after 1 mM WT soak, control 13.32±0.60 g): 7.49 ± 0.48 g
- contractile activity regained (canine brachial arteries [1]; 48 h after treatment): about 50%
- reduction of contractile responses / vasoconstriction (canine brachial arteries [1]; at 48 h following washout): 50%
- TUNEL-positive cells in the smooth muscle (canine brachial arteries [2]; 48 h after WT treatment and incubation, control 0.35±0.16%): 4.63±1.04%
- TUNEL-positive cells in the endothelium (canine brachial arteries [2]; 48 h after WT treatment and incubation, control 4.47±2.90%, P=0.058): 16.88%±4.90
- apoptotic nuclei in smooth muscle layer versus control (canine brachial arteries [2]; FIG. 3, 400×): greater extent of apoptotic nuclei (black arrows) stained red by the TUNEL method in the smooth muscle layer of control vessels (A) as compared to WT-treated vessels
- apoptotic nuclei in endothelium versus control (canine brachial arteries [2]; FIG. 4, 400×): greater extent of apoptotic nuclei (black arrows) stained red by the TUNEL method in the endothelium of control vessels (A) as compared to WT-treated vessels
- microscopic evidence of injury, endothelium and elastic lamina (H and E) (canine brachial arteries [3]): appeared normal
- microscopic evidence of injury, smooth muscle (H and E) (canine brachial arteries [3]): minimal hypereosinophilic staining in the smooth muscle
- relaxation response to SNP from pre-constricted state (canine brachial arteries [4]): 76.01±2.60%

Compound: COc1ccc(Cc2nccc3cc(OC)c(OC)cc23)cc1OC [papaverine]
- effect on contraction after washout (in words) (radial artery; after the drug has been washed away): virtually no effect after the drug has been washed away
- effect on endothelium (in words) [5]: causes both impairment of endothelial function and endothelial cell apoptosis

Compound: CC(COc1ccccc1)N(CCCl)Cc1ccccc1 (centres unmarked) [phenoxybenzamine]
- prevention of alpha-agonist-induced contractions (in words) (radial artery; 48 h following treatment): effective in preventing alpha-agonist-induced contractions at 48 h following treatment
